Measured values: patent publication US10519177B2, “Heterocyclic compounds and uses thereof” (Plexxikon Inc., priority 2013, dated 2019)

Key:
[1] = target: BRD4-BD12 (1-477) (Homo sapiens (Human), UniProt O60885); assay: Alphascreen binding assay BRD4-BD12; settings: BRD4(1 2) H4; read-out: Biochemical activity (IC50 μM) BRD4(1 2) H4
Protocol: Binding of compounds of formula (I) with bromodomain 2, 3 4 was assessed using Alphascreen binding assay. The inhibition of the interaction between bromodomain and its acetylated target protein (Filippakopoulos P et al. 2012) was measured quantitatively using recombinant BRD proteins, an acetylated Histone 4 peptide and AlphaScreen™ technology. In absence of inhibition the BRD protein bound to AlphaScreen™ nickel chelate acceptor beads can interact with the acetylated Histone 4 peptide which is immobilized by the AlphaScreen™ Streptavidin coated beads. This interaction brings donor and acceptor beads in proximity. The close proximity allows the singlet oxygen produced by laser excitation of the donor beads to reach the acceptor beads and generate a luminescence signal.
Recombinant human bromodomains containing the N-terminal bromodomain (BRD2-BD1 (71-194), BRD3-BD1 (24-144) and BRD4-BD1 (44-164)) or dual bromodomains (BRD4-BD12 (1-477), BRD4-BD12 (1-472)) were prepared and purified as described in protein expression and purification session. The peptide is human Histone H41-21K5AcK8AcK12AcK16Ac-Biotin (Anaspec CA, USA).
Protocol for BRD2, BRD3 and BRD4 assay: All components are prepared in buffer composed of 50 mM HEPES pH 7.5, 100 mM NaCl, 0.01% bovine serum albumin (“BSA”), 0.01% Triton X-100, 2 mM dithiothreitol (“DTT”). 7 μL of Bromodomain protein and 7 μL of peptide are added to wells containing 1 μL of various concentrations of test compounds of formula (I) or DMSO vehicle in an Alphaplate (PerkinElmer GA, USA) and incubated for 1 hour at room temperature. 4 μL donor and acceptor bead mixture is then added with final concentrations of 7.5 μg/ml. 30 minutes after bead addition, Alpha signal is read on the Envision spectrometer (λEx 680 nm, λEm 520-620 nm). Final concentrations of bromodomain proteins and peptide are as shown below.
All data was normalized to the mean of 16 high and 16 low control wells on each plate. A four parameter curve fit of the following formula was then applied: Y=a+(b−a)/(1+(x/c)^d) Where ‘a’ is the minimum, ‘b’ is the maximum, ‘c’ is the pIC50 and ‘d’ is the Hill slope. Protein Expression and Purification
Recombinant human bromodomains containing the N-terminal bromodomain (BRD2-BD1 (71-194), BRD3-BD1 (24-144) and BRD4-BD1 (44-164)) or dual bromodomains (BRD4-BD12 (1-477), BRD4-BD12 (1-472)) were expressed in E. coli cells (in a modified pET vector) with an N-terminal six-His tag and purified using a combination of both IMAC (Ni-affinity) and size exclusion chromatography steps.
Recombinant BRD proteins were expressed using the E. coli strain BL21-CodonPlus (DE3) (Agilent Technologies CA, USA). Cells were grown in Terrific Broth (TB) media to an OD600 of 1.2 at 37° C. at which temperature was reduced to 25° C., protein was induced with 1.0 mM ispropyl-β-D-thiogalactopyranoside (“IPTG”) for 12-18 hours and harvested by centrifugation at 8000×g for 20 minutes. Cells were re-suspended in 0.1M K2PO4 pH 8.0, 250 mM NaCl, 10% Glycerol, 0.75% NP-40, 25 mM Imidazole, 5 mM beta-mercaptoethanol (“BME”) with 0.2 mg/ml Lysosyme, 2.0 mM phenylmethanesulfonyl fluoride (“PMSF”), 25 μg/ml DNAse I, incubated on ice for 30 minutes and lyzed with a cell disruptor (MicroFluidics MA, USA). The lysate was clarified by centrifugation at 20,000×g for 2 hours. The protein was captured with Ni-NTA resin (Life Technologies, USA). Contaminating proteins were washed off with 25 mM Tris-HCl pH 8.3, 250 mM NaCl, 12% Glycerol and 50 mM Imidazole. Following 3× wash steps, protein was eluted step wise using a 50 mM HEPES pH 7.5, 500 mM NaCl and 400 mM Imidazole. The protein was further purified using Gel Filtration column 26/600 Superdex 200 (GE Biosciences NJ, USA) in 50 mM HEPES pH 7.5, 250 mM NaCl. The protein was aliquoted and flash-frozen in liquid Nitrogen.

[2] = system: MV-4-11 cells; assay: Oncology cell growth assay MV-4-11 (CellTiter Glo); type: cell-based; settings: Homo sapiens, MV4-11, 72 h; MV-4-11, 3d growth; read-out: Cell activity (IC50 μM) MV-4-11 3d-Growth
How it was run: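 MV-4-11 AML cells (MLL-AF4), 3000 per well, exposed to 8-point 1:3 compound titration from 10 μM top concentration (0.2% DMSO) for 72 h. Viability by CellTiter Glo luminescence, normalized to DMSO controls; pIC50 from four-parameter curve fit.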

Structure (SMILES)	IC50 [1]	IC50 [2]
COc1ccccc1Cn1cc(I)c2ncc(-c3c(C)noc3C)cc21 [P-0932, 4-[3-iodo-1-[(2-methoxyphenyl)methyl]pyrrolo[3,2-b]pyridin-6-yl]-3,5-dimethyl-isoxazole]	< 1 µM	< 1 µM
CC[C@@H](c1ccccn1)n1cc(-c2ccc(C(=O)O)cc2Cl)c2ncc(-c3c(C)noc3C)cc21 [P-1029, 3-chloro-4-[6-(3,5-dimethylisoxazol-4-yl)-1-[(1S)-1-(2-pyridyl)propyl]pyrrolo[3,2-b]pyridin-3-yl]benzoic acid]	< 1 µM	< 1 µM
Cc1noc(C)c1-c1ccc2c(-c3cnn(C)c3)cn(C(c3ccccc3)c3ccccn3)c2c1 (centres unmarked) [P-1040, 3,5-dimethyl-4-[3-(1-methylpyrazol-4-yl)-1-[phenyl(2-pyridyl)methyl]indol-6-yl]isoxazole]	< 1 µM	< 1 µM
Cc1noc(C)c1-c1cnc2c(-c3ccc(C(=O)O)cc3)cn(Cc3ccccc3F)c2c1 [P-0926, 4-[6-(3,5-dimethylisoxazol-4-yl)-1-[(2-fluorophenyl)methyl]pyrrolo[3,2-b]pyridin-3-yl]benzoic acid]	< 1 µM	< 1 µM
Cc1noc(C)c1-c1cnc2c(-c3ccc(C4(N)CC4)cc3)cn(CC3CCC(F)(F)CC3)c2c1 [P-0911, 1-[4-[1-[(4,4-difluorocyclohexyl)methyl]-6-(3,5-dimethylisoxazol-4-yl)pyrrolo[3,2-b]pyridin-3-yl]phenyl]cyclopropanamine]	< 1 µM	< 1 µM
Cc1noc(C)c1-c1ccc2c(-c3ccc(C(=O)O)c(F)c3)cn(C(c3ccccc3)c3ccccn3)c2c1 (centres unmarked) [P-1043, 4-[6-(3,5-dimethylisoxazol-4-yl)-1-[phenyl(2-pyridyl)methyl]indol-3-yl]-2-fluoro-benzoic acid]	< 1 µM	< 1 µM
COC(=O)c1ccc(-c2cn(Cc3ccccc3C#N)c3cc(-c4c(C)noc4C)cnc23)cc1 [P-0922, methyl 4-[1-[(2-cyanophenyl)methyl]-6-(3,5-dimethylisoxazol-4-yl)pyrrolo[3,2-b]pyridin-3-yl]benzoate]	< 1 µM	< 1 µM
Cc1noc(C)c1-c1cnc2c(I)cn(Cc3ccccc3F)c2c1 [P-0924, 4-[1-[(2-fluorophenyl)methyl]-3-iodo-pyrrolo[3,2-b]pyridin-6-yl]-3,5-dimethyl-isoxazole]	< 1 µM	< 1 µM
Cc1noc(C)c1-c1ccc2c(-c3ccc(C(=O)O)cc3)cn([C@@H](C)c3ccccn3)c2c1 [P-1030, 4-[6-(3,5-dimethylisoxazol-4-yl)-1-[(1S)-1-(2-pyridyl)ethyl]indol-3-yl]benzoic acid]	< 1 µM	< 1 µM
COC(=O)c1ccc(-c2cn(CC3CCCCC3)c3cc(-c4c(C)noc4C)cnc23)cc1OC [P-0904, methyl 4-[1-(cyclohexylmethyl)-6-(3,5-dimethylisoxazol-4-yl)pyrrolo[3,2-b]pyridin-3-yl]-2-methoxy-benzoate]	< 1 µM	< 1 µM
COc1ccc(-c2cn([C@@H](C)c3ccccn3)c3cc(-c4c(C)noc4C)cnc23)cn1 [P-0975, 4-[3-(6-methoxy-3-pyridyl)-1-[(1S)-1-(2-pyridyl)ethyl]pyrrolo[3,2-b]pyridin-6-yl]-3,5-dimethyl-isoxazole]	< 1 µM	< 1 µM
Cc1ncc(Cn2cc(-c3ccc(C(=O)O)cc3)c3ncc(-c4c(C)noc4C)cc32)s1 [P-0958, 4-[6-(3,5-dimethylisoxazol-4-yl)-1-[(2-methylthiazol-5-yl)methyl]pyrrolo[3,2-b]pyridin-3-yl]benzoic acid]	< 1 µM	< 1 µM
CC[C@H](c1ccccn1)n1cc(-c2ccc(CC(=O)O)cc2)c2ncc(-c3c(C)noc3C)cc21 [P-0962, 2-[4-[6-(3,5-dimethylisoxazol-4-yl)-1-[(1R)-1-(2-pyridyl)propyl]pyrrolo[3,2-b]pyridin-3-yl]phenyl]acetic acid]	< 1 µM	< 1 µM
Cc1noc(C)c1-c1cnc2c(-c3ccc(C(=O)O)cc3)cn(C(c3ccccn3)C3CCOCC3)c2c1 (centres unmarked) [P-1036, 4-[6-(3,5-dimethylisoxazol-4-yl)-1-[2-pyridyl(tetrahydropyran-4-yl)methyl]pyrrolo[3,2-b]pyridin-3-yl]benzoic acid]	< 1 µM	< 1 µM
CC[C@H](c1ccccn1)n1cc(I)c2ncc(-c3c(C)noc3C)cc21 [P-0956, 4-[3-iodo-1-[(1R)-1-(2-pyridyl)propyl]pyrrolo[3,2-b]pyridin-6-yl]-3,5-dimethyl-isoxazole]	< 1 µM	< 1 µM
Cc1noc(C)c1-c1cnc2c(-c3ccc(C(=O)O)cc3)cn([C@H](c3ccccn3)C3CC3)c2c1 [P-0990, 4-[1-[(S)-cyclopropyl(2-pyridyl)methyl]-6-(3,5-dimethylisoxazol-4-yl)pyrrolo[3,2-b]pyridin-3-yl]benzoic acid]	< 1 µM	< 1 µM
CC[C@@H](c1ccccn1)n1cc(-c2ccc(C(=O)O)c(F)c2)c2ncc(-c3c(C)noc3C)cc21 [P-1022, 4-[6-(3,5-dimethylisoxazol-4-yl)-1-[(1S)-1-(2-pyridyl)propyl]pyrrolo[3,2-b]pyridin-3-yl]-2-fluoro-benzoic acid]	< 1 µM	< 1 µM
COC(=O)C1(c2ccc(-c3cn(Cc4ccccn4)c4cc(-c5c(C)noc5C)cnc34)cc2)CC1 [P-0952, methyl 1-[4-[6-(3,5-dimethylisoxazol-4-yl)-1-(2-pyridylmethyl)pyrrolo[3,2-b]pyridin-3-yl]phenyl]cyclopropanecarboxylate]	< 1 µM	< 1 µM
COC(=O)Cc1ccc(-c2cn(Cc3ccccn3)c3cc(-c4c(C)noc4C)cnc23)cc1 [P-0965, methyl 2-[4-[6-(3,5-dimethylisoxazol-4-yl)-1-(2-pyridylmethyl)pyrrolo[3,2-b]pyridin-3-yl]phenyl]acetate]	< 1 µM	< 1 µM
Cc1noc(C)c1-c1cnc2c(-c3ccc(C4(C(=O)O)CC4)cc3)cn([C@H](c3ccccn3)C3CC3)c2c1 [P-1032, 1-[4-[1-[(S)-cyclopropyl(2-pyridyl)methyl]-6-(3,5-dimethylisoxazol-4-yl)pyrrolo[3,2-b]pyridin-3-yl]phenyl]cyclopropanecarboxylic acid]	< 1 µM	< 1 µM
Cc1noc(C)c1-c1cnc2c(-c3ccc(NS(C)(=O)=O)cc3)cn([C@@H](C)c3ccccn3)c2c1 [P-0979, N-[4-[6-(3,5-dimethylisoxazol-4-yl)-1-[(1S)-1-(2-pyridyl)ethyl]pyrrolo[3,2-b]pyridin-3-yl]phenyl]methanesulfonamide]	< 1 µM	< 1 µM
COC(=O)c1ccc(-c2cn(Cc3ccccc3OC)c3cc(-c4c(C)noc4C)cnc23)cc1 [P-0933, methyl 4-[6-(3,5-dimethylisoxazol-4-yl)-1-[(2-methoxyphenyl)methyl]pyrrolo[3,2-b]pyridin-3-yl]benzoate]	< 1 µM	1 to 10 µM
